# Tests used:
# Type in all cases: functional
# [1] = tested on: HL-60(TB); assay: Antiproliferative activity against human HL-60(TB) cells assessed as inhibition of cell growth measured after 48 hrs by SRB assay; conditions: HL-60, 48 h
# [2] = tested on: MDA-MB-231; assay: Antiproliferative activity against human MDA-MB-231 cells assessed as inhibition of cell growth measured after 48 hrs by SRB assay; conditions: MDA-MB-231, 48 h
# [3] = tested on: SNB-75; assay: Antiproliferative activity against human SNB75 cells assessed as inhibition of cell growth at 10 uM measured after 48 hrs by SRB assay relative to control; conditions: SNB-75, 48 h, read-out: GI
# [4] = tested on: SF-539; assay: Antiproliferative activity against human SF539 cells assessed as inhibition of cell growth measured after 48 hrs by SRB assay; conditions: SF-539, 48 h
# [5] = tested on: HT-29; assay: Antiproliferative activity against human HT-29 cells assessed as inhibition of cell growth at 10 uM measured after 48 hrs by SRB assay relative to control; conditions: HT-29, 48 h, read-out: GI
# [6] = tested on: NCI-H23; assay: Antiproliferative activity against human NCI-H23 cells assessed as inhibition of cell growth measured after 48 hrs by SRB assay; conditions: NCI-H23, 48 h
# [7] = tested on: K562; assay: Antiproliferative activity against human K562 cells assessed as inhibition of cell growth measured after 48 hrs by SRB assay; conditions: K562, 48 h
# [8] = tested on: NCI-H226; assay: Antiproliferative activity against human NCI-H226 cells assessed as inhibition of cell growth at 10 uM measured after 48 hrs by SRB assay relative to control; conditions: NCI-H226, 48 h, read-out: GI
# [9] = tested on: SF-295; assay: Antiproliferative activity against human SF295 cells assessed as inhibition of cell growth at 10 uM measured after 48 hrs by SRB assay relative to control; conditions: SF-295, 48 h, read-out: GI
# [10] = tested on: OVCAR-3; assay: Antiproliferative activity against human OVCAR3 cells assessed as inhibition of cell growth at 10 uM measured after 48 hrs by SRB assay relative to control; conditions: OVCAR-3, 48 h, read-out: GI
# [11] = tested on: KM12; assay: Antiproliferative activity against human KM12 cells assessed as inhibition of cell growth at 10 uM measured after 48 hrs by SRB assay relative to control; conditions: KM12, 48 h, read-out: GI
# [12] = tested on: MDA-MB-468; assay: Antiproliferative activity against human MDA-MB-468 cells assessed as inhibition of cell growth at 10 uM measured after 48 hrs by SRB assay relative to control; conditions: MDA-MB-468, 48 h, read-out: GI
# [13] = tested on: HCT-15; assay: Antiproliferative activity against human HCT15 cells assessed as inhibition of cell growth measured after 48 hrs by SRB assay; conditions: HCT-15, 48 h
# [14] = tested on: OVCAR-8; assay: Antiproliferative activity against human OVCAR8 cells assessed as inhibition of cell growth at 10 uM measured after 48 hrs by SRB assay relative to control; conditions: OVCAR-8, 48 h, read-out: GI
# [15] = tested on: CAKI-1; assay: Antiproliferative activity against human CAKI-1 cells assessed as inhibition of cell growth at 10 uM measured after 48 hrs by SRB assay relative to control; conditions: CAKI-1, 48 h, read-out: GI
# [16] = tested on: RXF 393; assay: Antiproliferative activity against human RXF393 cells assessed as inhibition of cell growth at 10 uM measured after 48 hrs by SRB assay relative to control; conditions: RXF 393, 48 h, read-out: GI
# [17] = tested on: KM12; assay: Antiproliferative activity against human KM12 cells assessed as inhibition of cell growth measured after 48 hrs by SRB assay; conditions: KM12, 48 h
# [18] = tested on: MDA-MB-231; assay: Antiproliferative activity against human MDA-MB-231 cells assessed as inhibition of cell growth at 10 uM measured after 48 hrs by SRB assay relative to control; conditions: MDA-MB-231, 48 h, read-out: GI
# [19] = tested on: PC-3; assay: Antiproliferative activity against human PC3 cells assessed as inhibition of cell growth measured after 48 hrs by SRB assay; conditions: PC-3, 48 h
# [20] = tested on: Malme-3M; assay: Antiproliferative activity against human MALME-3M cells assessed as inhibition of cell growth measured after 48 hrs by SRB assay
# [21] = tested on: TK-10; assay: Antiproliferative activity against human TK10 cells assessed as inhibition of cell growth measured after 48 hrs by SRB assay; conditions: TK-10, 48 h
# [22] = tested on: HOP-92; assay: Antiproliferative activity against human HOP92 cells assessed as inhibition of cell growth measured after 48 hrs by SRB assay; conditions: HOP-92, 48 h
# [23] = tested on: OVCAR-4; assay: Antiproliferative activity against human OVCAR4 cells assessed as inhibition of cell growth measured after 48 hrs by SRB assay; conditions: OVCAR-4, 48 h
# [24] = tested on: SF-268; assay: Antiproliferative activity against human SF268 cells assessed as inhibition of cell growth measured after 48 hrs by SRB assay; conditions: SF-268, 48 h
SMILES,GI50 [1],GI50 [2],inhibition of growth at 10 µM [3],GI50 [4],inhibition of growth at 10 µM [5],GI50 [6],GI50 [7],inhibition of growth at 10 µM [8],inhibition of growth at 10 µM [9],inhibition of growth at 10 µM [10],inhibition of growth at 10 µM [11],inhibition of growth at 10 µM [12],GI50 [13],inhibition of growth at 10 µM [14],inhibition of growth at 10 µM [15],inhibition of growth at 10 µM [16],GI50 [17],inhibition of growth at 10 µM [18],GI50 [19],GI50 [20],also measured
COc1ccc2nc3c(cc2c1)C(=O)CC(c1ccccc1)C3 (configuration not stated),0.274 µM,3.42 µM,109%,1.15 µM,90%,6.18 µM,0.344 µM,73.5%,69%,107%,89.2%,31.7%,2.68 µM,61%,68.7%,103%,0.45 µM,45.4%,0.715 µM,–,–
O=C1CC(c2ccccc2)Cc2nc3ccc(Cl)cc3cc21 (configuration not stated),0.211 µM,0.617 µM,70.3%,0.219 µM,95.6%,0.517 µM,0.119 µM,79.2%,103%,129%,98.3%,89.8%,0.588 µM,77.6%,70.8%,78.2%,0.349 µM,80.5%,0.28 µM,–,–
COc1ccc2nc3c(cc2c1)C(=O)CC(C(F)(F)F)C3 (configuration not stated),0.325 µM,3.98 µM,92.1%,1.89 µM,89.1%,5.15 µM,0.437 µM,60.2%,54.7%,94.7%,88.4%,64.4%,1.37 µM,60%,63%,102%,0.316 µM,40%,0.835 µM,–,–
O=C1CC(c2ccccc2)Cc2nc3c(Br)cc(Br)cc3cc21 (configuration not stated),0.226 µM,0.402 µM,64.8%,0.192 µM,91.7%,0.26 µM,0.0676 µM,85.9%,132%,140%,98%,116%,0.312 µM,96%,98.8%,70%,0.242 µM,84.9%,0.0666 µM,0.119 µM,GI50 [21]: 0.7 µM; GI50 [22]: 0.0668 µM; GI50 [23]: 1.41 µM; GI50 [24]: 0.167 µM
O=C1CC(c2ccccc2)Cc2nc3ccc(Br)cc3cc21 (configuration not stated),0.214 µM,0.598 µM,63.4%,0.241 µM,97.8%,0.616 µM,0.175 µM,75.9%,82.8%,128%,91.1%,99.7%,0.528 µM,75.9%,69.3%,71.6%,0.341 µM,86.8%,0.254 µM,0.0949 µM,GI50 [24]: 3.45 µM

# — ChEMBL document CHEMBL4627344, “Synthesis, biological evaluation and virtual screening of some acridone derivatives as potential anticancer agents” (2020)
